Data set [1] has as its system HeLa cells. Kind of data set: MTT test, combination of Tdp1 inhibitors with topotecan. Type of data set: cell-based, human. A general note: Tetrazolium dyes change colour on reduction, which living cells bring about.
Procedure: In order to derive the optimal concentration for the inhibitors to provide the maximum sensitizing effect, but remaining non-toxic, the concentrations with topotecan at 2 µM, were varied.
Since there is no information on the rate and efficiency of the penetration of compounds into the cells, we studied the effect of the order of administration of (+)-17b and topotecan on their synergistic effect.
Analysis of the intrinsic toxicity of the compounds was examined against human cell line HeLa (cervical cancer) using a standard MTT test [51] by colorimetric measurement of the amount of formazan converted from 3-(4,5-dimethylthiazol-2-yl)-2,5-diphenyl-2H-tetrazolium bromide in cells exposed to the compounds. The cells were grown in Iscove’s Modified Dulbecco’s Medium (IMDM), with 40 μg/mL gentamicin, 50 IU/mL penicillin, 50 μg/mL streptomycin (MP Biomedicals), and in the presence of 10% fetal bovine serum (Biolot) in a 5% CO2 atmosphere. After formation of a 30–50% monolayer, tested compounds were added to the medium (the volume of added reagents was 1/100 of the total volume of the culture medium, the amount of DMSO was 1% of the final volume), and the cell culture was monitored for three days. Control cells were grown in the presence of 1% DMSO. The measurements were carried out in three parallel experiments.
The target of data set [2] is T1, Tdp1 (Homo sapiens, UniProt Q9NUW8).
T1 construct: made in house; host or cells: Escherichia coli
Conditions: read-out: IC50 (Tdp1); cited from earlier work.

Data set [3] concerns Top1. On the set-up: method as in PMID 28418653. Conditions: cited from earlier work.
Data set [4] relates to Tdp2. On the set-up: method as in PMID 28418653. Conditions: cited from earlier work.
The test system of data set [5] is mice. Conditions: ref Registry of Toxic Effects of Chemical Substances, cited from earlier work.
Data set [6] addresses T1, Tdp1. Kind of data set: Real-time detection of Tdp1 activity (5'-FAM/3'-BHQ1 oligonucleotide biosensor). Type of data set: biochemical. Conditions: 1.5 nM Tdp1, 50 nM oligonucleotide substrate, 26 °C. In outline:
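Recombinant human Tdp1 (E. coli-expressed, 1.5 nM) with 50 nM 16-mer ssDNA 5'-FAM/3'-BHQ1 biosensor in 50 mM Tris-HCl, 50 mM NaCl, 7 mM β-mercaptoethanol, 26 °C; fluorescence (Ex485/Em520) read each minute. Inhibition from linear-phase slope (0–7 min) vs 1.5% DMSO control; IC50 from six-point curves, ≥2 independent experiments.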

In data set [7] the target is T2, recombinant Tdp1 (residues 149–608) (Homo sapiens, UniProt Q9NUW8).
T2 construct: recombinant Tdp1 (residues 149–608) was obtained from GenScript; host or cells: E. coli BL21(DE3)
The data set is described as follows: Intrinsic tryptophan fluorescence quenching binding assay. Conditions: 10 µM Tdp1, 20 mM Tris, 250 mM NaCl, pH 8; triplicate.

Data set [8] has as its system Lewis lung carcinoma. The arrangement: method as in PMID 30903487. Conditions: Lewis lung carcinoma models; cited from earlier work.
Data set [9] in a line: MTT test, intrinsic cytotoxicity. It counts as cell-based. Conditions: human, HeLa cells (cervical carcinoma), compound alone. The source says: First, we studied the intrinsic cytotoxicity of the compounds against HeLa cells (cervical carcinoma). For experiments on cells, we selected compounds which combined high inhibitory activity with good chemical accessibility. The MTT test data are shown in Figure 4 for compounds from both the heteroarylidene-hydrazinotiazole and arylidene-hydrazinotiazole subclasses. […] Heteroarylidene-hydrazinothiazole derivatives (+)- and (−)-16f, containing a bromothiophene residue, also have low toxicity (CC50 about 80 µM), while the 16d pair, containing a nitro group that is a known toxicophore, suppressed cell growth at a concentration of 20 µM.
Analysis of the intrinsic toxicity of the compounds was examined against human cell line HeLa (cervical cancer) using a standard MTT test by colorimetric measurement of the amount of formazan converted from 3-(4,5-dimethylthiazol-2-yl)-2,5-diphenyl-2H-tetrazolium bromide in cells exposed to the compounds. […] After formation of a 30–50% monolayer, tested compounds were added to the medium (the volume of added reagents was 1/100 of the total volume of the culture medium, the amount of DMSO was 1% of the final volume), and the cell culture was monitored for three days. […]

Entries after “also recorded” stand apart in the source; their conditions may differ. Like-named read-outs stand apart in the source and are kept apart here. Where only a bound is given, the exact number is not on record here.

T1 sequence (Q9NUW8 whole entry): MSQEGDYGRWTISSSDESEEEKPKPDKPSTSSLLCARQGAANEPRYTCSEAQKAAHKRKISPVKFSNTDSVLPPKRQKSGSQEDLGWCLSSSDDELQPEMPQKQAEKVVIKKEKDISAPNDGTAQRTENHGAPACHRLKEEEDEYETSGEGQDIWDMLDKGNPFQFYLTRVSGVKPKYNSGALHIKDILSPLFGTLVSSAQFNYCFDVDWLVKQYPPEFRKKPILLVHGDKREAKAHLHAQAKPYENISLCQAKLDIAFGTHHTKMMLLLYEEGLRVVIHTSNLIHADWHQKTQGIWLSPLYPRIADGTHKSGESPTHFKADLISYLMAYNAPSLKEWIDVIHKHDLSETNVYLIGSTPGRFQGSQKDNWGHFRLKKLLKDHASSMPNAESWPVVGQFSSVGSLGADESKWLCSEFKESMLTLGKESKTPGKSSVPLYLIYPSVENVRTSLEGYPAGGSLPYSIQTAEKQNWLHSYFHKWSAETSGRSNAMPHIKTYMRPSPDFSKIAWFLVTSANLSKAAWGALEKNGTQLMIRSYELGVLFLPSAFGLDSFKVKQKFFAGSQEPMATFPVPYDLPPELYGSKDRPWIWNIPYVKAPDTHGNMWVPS
T2 sequence (Q9NUW8 149-608): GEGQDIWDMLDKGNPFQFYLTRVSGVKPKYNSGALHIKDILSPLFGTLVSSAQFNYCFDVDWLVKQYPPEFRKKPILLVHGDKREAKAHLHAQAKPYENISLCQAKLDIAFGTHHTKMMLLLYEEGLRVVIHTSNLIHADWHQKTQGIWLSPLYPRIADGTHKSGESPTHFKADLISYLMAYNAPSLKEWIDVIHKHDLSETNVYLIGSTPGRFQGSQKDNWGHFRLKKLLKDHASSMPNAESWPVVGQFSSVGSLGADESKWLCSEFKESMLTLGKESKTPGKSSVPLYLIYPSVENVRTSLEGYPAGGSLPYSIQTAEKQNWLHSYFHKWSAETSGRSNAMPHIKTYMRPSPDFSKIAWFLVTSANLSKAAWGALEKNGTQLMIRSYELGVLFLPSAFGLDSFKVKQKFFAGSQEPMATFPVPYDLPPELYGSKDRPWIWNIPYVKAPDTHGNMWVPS

As usually defined, the CC50 is the concentration giving 50% cytotoxicity. For `CC[C@@]1(O)C(=O)OCc2c1cc1n(c2=O)Cc2cc3c(CN(C)C)c(O)ccc3nc2-1` [topotecan, reference compound], the CC50 in data set [1] (Homo sapiens, read-out: CC50 of topotecan alone) amounted to 6 µM.
One may read the IC50 as the concentration at which inhibition is half-maximal. Take `COc1cnc2c(c1)C(=O)c1c-2n(CCCNC2=NCCS2)c(=O)c2cc([N+](=O)[O-])ccc12` [compound 4]: the IC50 in data set [2] was 1 to 12 µM; in [3] it was below 1 µM; in [4], 12 to 37 µM.
A word on the LD50: it is the dose at which mortality reaches 50%. On to “2,6-diacetyl-7,9-dihydroxy-8,9b-dimethyl-1,3(2H,9bH)-dibenzo-furandione [Usnic acid]”, for which, in data set [5] (mice), the LD50 is recorded as 838 mg/kg. Further, the toxicity class result in data set [5] was “class III toxicity (moderately toxic)”.
For orientation: Kd means the equilibrium constant for the complex coming apart. Consider `COc1ccc(/C=N/Nc2nc(-c3c(O)c(C)c(O)c4c3OC3=CC(O)=C(C(C)=O)C(=O)[C@@]34C)cs2)cc1COc1cccc(F)c1` [(+)-17b, (2R)-4-Acetyl-10-{2-[(E)-2-({3-[(3-fluorophenoxy)methyl]-4-methoxyphenyl}methylidene)hydrazin-1-yl]-1,3-thiazol-4-yl}-5,11,13-trihydroxy-2,12-dimethyl-8-oxatricyclo[7.4.0.0^2,7]trideca-1(9),4,6,10,12-pentaen-3-one], for which the IC50 in data set [6] is 0.026 ± 0.004 µM. In addition, the Kd in data set [7] is 131 ± 15 µM. Further, the “effect of the order of administration on the synergistic effect with topotecan” value in [1] (30 minutes between additions) was “the simultaneous administration of drugs reduced the synergistic effect; also recorded: led to worse results when compared with simultaneous administration”.
Consider `CC(=O)c1c(O)c(C)c(O)c2c1OC1=CC(=O)/C(=C(/C)NCCCc3cc(C(C)(C)C)c(O)c(C(C)(C)C)c3)C(=O)[C@@]12C` [9b], for which, in [8], the metastasis growth entry is reported as “reduces metastasis growth”.
`CC(=O)C1=C(O)C=C2Oc3c(-c4csc(N/N=C/c5ccc(Br)s5)n4)c(O)c(C)c(O)c3[C@]2(C)C1=O` [(−)-16f, (2S)-4-Acetyl-5,11,13-trihydroxy-2,12-dimethyl-10-{2-[(E)-2-[(5-bromothiophen-2-yl)methylidene]hydrazin-1-yl]-1,3-thiazol-4-yl}-8-oxatricyclo[7.4.0.0^2,7]trideca-1(9),4,6,10,12-pentaen-3-one] displayed an IC50 in data set [6] of 0.043 ± 0.001 µM. Further, in [7], the Kd is 148 ± 9 µM. The CC50 at 3 days in [9] was around 80 µM.

(Values after article PMC6832265 (Molecules, 2019).)
